# From patent US20130029928A1 (priority 2010, published 2013)
# Like-named read-outs stand apart in the source and are kept apart here.
# Assay: Phase I study CXR1002-001: plasma pharmacokinetics (LC-MS/MS)
# Type: in vivo, human
# Details: human, plasma, oral, 600 mg, person, plasma, read-out: Concentration; for concentration at 336 h: 336 hr (Day 15); for concentration at 360 h: 360 hr (Day 16); for concentration at 504 h: 504 hr (Day 22); for concentration at 528 h: 528 hr (Day 23); for concentration at 24 h: 24 hr (Day 2); for concentration at 168 h: 168 hr (Day 8)
# Text: PK samples, PD (fasting) samples, blood glucose, and blood triglyceride samples, were taken over a 6-week period.
# Dose limiting toxicity (DLT) will be based on the toxicity assessments over the first 3-week period of the repeat dosing schedule. PK samples (single blood sample) were taken on the following basis: • Every 6 weeks during the repeat dosing phase • If dosing is interrupted or stopped, samples will be taken at intervals according to patient convenience • PK sampling for safety evaluation may take place at any time, as clinically indicated
# Plasma samples were collected after the single 50 mg dose at the following timepoints: Pre-dose, and then 0.25, 0.5, 0.75, 1, 1.5, 2, 3, 4, 6, 24, 48, and 72 hours after administration and then once weekly at weeks 2, 3, 4, 5, and 6 (days 8, 15, 22, 29, and 36). For patients treated with the weekly repeat dose, plasma samples were collected at the following timepoints: Pre-dose and then 2, 3, 4 and 24 hours after administration for a total of 6 weeks. Thereafter a single sample was collected every 6 weeks for monitoring of exposure during long term treatment. Plasma samples were processed at site and stored at −80° C. prior to batch shipment to the analytical laboratory.
structure (smiles),measurement,setting,value
O=C(O)C(F)(F)C(F)(F)C(F)(F)C(F)(F)C(F)(F)C(F)(F)C(F)(F)F [CXR1002],concentration at 192 h,"Patient 021, 600 mg, 192 hr (Day 9)",479 µM
same,concentration at 336 h,"Patient 021, 600 mg",412 µM
same,concentration at 338 h,"Patient 021, 600 mg",650 µM
same,concentration at 339 h,"Patient 021, 600 mg",653 µM
same,concentration at 340 h,"Patient 021, 600 mg",633 µM
same,concentration at 360 h,"Patient 021, 600 mg",604 µM
same,concentration at 504 h,"Patient 021, 600 mg",605 µM
same,concentration at 506 h,"Patient 021, 600 mg",734 µM
same,concentration at 507 h,"Patient 021, 600 mg",654 µM
same,concentration at 508 h,"Patient 021, 600 mg",722 µM
same,concentration at 528 h,"Patient 021, 600 mg",678 µM
same,concentration at 672 h,"Patient 021, 600 mg, 672 hr (Day 29)",613 µM
same,concentration at 674 h,"Patient 021, 600 mg, 674 hr",681 µM
same,concentration at 675 h,"Patient 021, 600 mg, 675 hr",847 µM
same,concentration at 676 h,"Patient 021, 600 mg, 676 hr",845 µM
same,concentration at 696 h,"Patient 021, 600 mg, 696 hr (Day 30)",799 µM
same,concentration at 840 h,"Patient 021, 600 mg, 840 hr (Day 36)",779 µM
same,concentration at 842 h,"Patient 021, 600 mg, 842 hr",968 µM
same,concentration at 843 h,"Patient 021, 600 mg, 843 hr",928 µM
same,concentration at 844 h,"Patient 021, 600 mg, 844 hr",981 µM
same,concentration at 864 h,"Patient 021, 600 mg, 864 hr (Day 37)",995 µM
same,concentration at 2 h,"Patient 022, 600 mg",193 µM
same,concentration at 3 h,"Patient 022, 600 mg",196 µM
same,concentration at 4 h,"Patient 022, 600 mg",199 µM
same,concentration at 24 h,"Patient 022, 600 mg",157 µM
same,concentration at 168 h,"Patient 022, 600 mg",143 µM
same,concentration at 170 h,"Patient 022, 600 mg",310 µM
same,concentration at 171 h,"Patient 022, 600 mg",270 µM
same,concentration at 172 h,"Patient 022, 600 mg",276 µM
same,concentration at 192 h,"Patient 022, 600 mg, 192 hr (day 9)",298 µM
same,concentration at 336 h,"Patient 022, 600 mg",289 µM
same,concentration at 338 h,"Patient 022, 600 mg",433 µM
same,concentration at 339 h,"Patient 022, 600 mg",433 µM
same,concentration at 340 h,"Patient 022, 600 mg",405 µM
same,concentration at 360 h,"Patient 022, 600 mg",427 µM
same,concentration at 504 h,"Patient 022, 600 mg",426 µM
same,concentration at 506 h,"Patient 022, 600 mg",441 µM
same,concentration at 507 h,"Patient 022, 600 mg",562 µM
same,concentration at 508 h,"Patient 022, 600 mg",519 µM
same,concentration at 528 h,"Patient 022, 600 mg",596 µM
same,concentration at 2 h,"Patient 023, 600 mg",208 µM
same,concentration at 3 h,"Patient 023, 600 mg",233 µM
same,concentration at 4 h,"Patient 023, 600 mg",236 µM
same,concentration at 24 h,"Patient 023, 600 mg",221 µM
same,concentration at 168 h,"Patient 023, 600 mg",204 µM
same,concentration at 170 h,"Patient 023, 600 mg",336 µM
same,concentration at 171 h,"Patient 023, 600 mg",337 µM
same,concentration at 172 h,"Patient 023, 600 mg",391 µM
same,concentration at 192 h,"Patient 023, 600 mg, 192 hr (day 9)",400 µM
same,concentration at 336 h,"Patient 023, 600 mg",432 µM
same,concentration at 338 h,"Patient 023, 600 mg",495 µM
same,concentration at 339 h,"Patient 023, 600 mg",613 µM
same,concentration at 340 h,"Patient 023, 600 mg",636 µM
same,concentration at 360 h,"Patient 023, 600 mg",616 µM
same,concentration at 2 h,"Patient 024, 600 mg",91.6 µM
same,concentration at 3 h,"Patient 024, 600 mg",188 µM
same,concentration at 4 h,"Patient 024, 600 mg",283 µM
